# Assay results: patent US10617654B2, “Use of fenoterol and fenoterol analogues in the treatment of glioblastomas and astrocytomas” (priority 2010, dated 2020)
# Values joined by “and” are separate entries in the source; they are usually repeats but may differ in a detail not shown here. Equal values may be shown once.
# Key:
# [1] = test system: rat cardiomyocyte; test: Rat cardiomyocyte contractility model; assay type: cell-based
# [2] = biological target: T1, β2-AR (Homo sapiens (Human), UniProt P07550); details: previously reported; cited from earlier work
# T1 sequence (P07550 whole entry): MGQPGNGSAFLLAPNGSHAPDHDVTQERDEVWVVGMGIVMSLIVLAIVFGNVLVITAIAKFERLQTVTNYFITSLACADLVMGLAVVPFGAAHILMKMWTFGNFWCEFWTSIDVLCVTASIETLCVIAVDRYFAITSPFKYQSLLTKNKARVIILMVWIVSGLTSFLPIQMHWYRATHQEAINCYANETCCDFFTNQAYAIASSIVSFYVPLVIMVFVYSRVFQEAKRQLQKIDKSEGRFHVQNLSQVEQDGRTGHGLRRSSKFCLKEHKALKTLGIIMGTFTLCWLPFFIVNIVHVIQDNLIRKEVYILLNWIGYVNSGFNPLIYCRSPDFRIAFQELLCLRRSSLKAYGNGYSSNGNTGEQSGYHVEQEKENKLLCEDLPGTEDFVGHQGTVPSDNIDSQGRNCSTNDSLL
# [3] = test system: 1321N1 cells; test: Inhibition of mitogenesis, [3H]-thymidine incorporation in 1321N1 cells; assay type: cell-based, human; details: 1321N1 cells
# [4] = Brain and plasma analysis of [3H]-(R,R)-methoxyfenoterol after IV administration; assay type: in vivo, male Sprague-Dawley rats; details: 5 mg/kg IV; for Brain, Mean / Percent of Dose in Brain, Mean / Plasma, Mean: three rats; for Brain, Individual / Percent of Dose in Brain, Individual / Plasma, Individual: individual rat
# Protocol: An overview of the research study design for evaluating the brain-to-plasma distribution of [^3H]
# (specific activity 57 Ci/mmol); vehicle was sterile saline, 0.9% sodium chloride, USP. Dose formulations were prepared on the day of the study. The amount of radioactivity in the dose formulation was determined by liquid scintillation. The study lasted for an hour and radioactivity levels in plasma and brain tissue were evaluated at the conclusion of the study. Approximately 5 mls of whole blood was collected. Blood samples were collected via cardiac puncture, transferred into a tube containing K3EDTA as the anticoagulant and kept on wet ice until processed to plasma. To generate plasma, samples were centrifuged within 15 minutes of collection at 2,500 RPM for 15 minutes at room temperature. Plasma was divided equally into three labeled cryovials and stored on ample dry ice until transferred to a freezer set at ≤−20° C. for storage until analysis. Duplicate aliquots were weighed and then combined with scintillation cocktail. The [^3H] radioactivity was determined on a liquid scintillation counter. Brain samples were snap frozen in liquid nitrogen and stored at ≤−70° C. until analysis. Whole brain tissue was homogenized and the weight of the homogenate was determined. Duplicate aliquots from the homogenate were weighed, solubilized and then combined with scintillation cocktail. The [^3H] radioactivity was determined on a liquid scintillation counter.
# [5] = biological target: T1, β2-AR; assay type: cell-based; details: 1321N1 cells, basal below 0.5 nmol/mg protein
# Protocol: HEK-β2-AR, 1321N1 or U87MG cells were plated in 96-well plates. When the cells reached confluence, the medium was removed and each well rinsed with 0.1 mL of Krebs-HEPES buffer (130 mM NaCl, 4.8 mM KCl, 1.2 mM KH2PO4, 1.3 mM CaCl2, 1.2 mM MgSO4, 25 mM HEPES, and 10 mM glucose, pH 7.3). The plates were preincubated for 10 minutes at room temperature with buffer alone; then test compound diluted in buffer was added to the wells for quadruplicate determinations. The plates were incubated for an additional 10 minutes with the test compound. After incubation, the medium was removed and 0.1 mL of 0.5 M formic acid was added. After a minimum of 1 hour, the supernatant was removed and lyophilized. cAMP was quantitated using the protein kinase binding assay of Gilman. The amount of protein per well was determined using the BCA protein determination kit (Thermo Scientific Pierce, Rockford, Ill.) and was used to calculate the amount of cAMP/mg/well.
# [6] = 5 min, listed as [^3H]—(R,R)-methoxyfenoterol
# [7] = 60 min, listed as [^3H]—(R,R)-methoxyfenoterol
structure (smiles),measurement,setting,value
"C[C@@H](Cc1ccc(O)cc1)NC[C@@H](O)c1cc(O)cc(O)c1 [(S,S)-1, (S,S)-(+)-Fenoterol]",EC50,[1],55 µM
CC(C)NCC(O)c1ccc(O)c2[nH]c(=O)ccc12 (centres unmarked) [Compound 50],Ki,[2],0.17 µM
same,Ki β1/Ki β2,[2],1.7
NCC(O)c1ccc(O)c2[nH]c(=O)ccc12 (centres unmarked) [Compound 51],Ki,[2],6.3 µM
same,Ki β1/Ki β2,[2],1.3
"Cc1ccc(OCC(O)C(C)NC(C)C)c2c1CCC2 (centres unmarked) [ICI 118-551, reference compound]",pA2,"[3]; competitive inhibition of inhibitory effect of (R,R)-fenoterol",8.9
same,slope (pA2 analysis),"[3]; inhibition of effect of (R,R)-fenoterol",−1.3±0.3
"COc1ccc(C[C@@H](C)NC[C@H](O)c2cc(O)cc(O)c2)cc1.Cl [[^3H]-(R,R)-methoxyfenoterol]","Brain, Mean",[4]; 5 min,0.92 μg-equiv/g
same,"Percent of Dose in Brain, Mean",[4]; 5 min,0.14%
same,"Plasma, Mean",[4]; 5 min,3.25 μg-equiv/ml
same,"Brain, Mean",[4]; [6],0.92±0.10 μg-equiv/g
same,"Plasma, Mean",[4]; [6],3.25±0.15 μg-equiv/ml
same,"Brain, Mean",[4]; 15 min,0.80 μg-equiv/g
same,"Percent of Dose in Brain, Mean",[4]; 15 min,0.12%
same,"Plasma, Mean",[4]; 15 min,1.79 μg-equiv/ml
same,"Brain, Mean",[4]; 30 min,0.72 μg-equiv/g
same,"Percent of Dose in Brain, Mean",[4]; 30 min,0.11%
same,"Plasma, Mean",[4]; 30 min,1.53 μg-equiv/ml
same,"Brain, Mean",[4]; 60 min,0.70 μg-equiv/g
same,"Percent of Dose in Brain, Mean",[4]; 60 min,0.11%
same,"Plasma, Mean",[4]; 60 min,1.24 μg-equiv/ml
same,"Brain, Mean",[4]; [7],0.70±0.37 μg-equiv/g
same,"Plasma, Mean",[4]; [7],1.24±0.43 μg-equiv/ml
same,"percent dose found in the brain, any given animal",[4]; over 60 minutes,no more than 0.17%
same,decrease of plasma levels,[4]; from 5 minutes to 60 minutes,62%
same,"Brain, Individual",[4]; 5 min,1.00 μg-equiv/g and 0.80 μg-equiv/g and 0.95 μg-equiv/g
same,"Percent of Dose in Brain, Individual",[4]; 5 min,0.15% (2×) and 0.12%
same,"Plasma, Individual",[4]; 5 min,3.30 μg-equiv/ml and 3.08 μg-equiv/ml and 3.37 μg-equiv/ml
same,"Brain, Individual",[4]; 15 min,0.99 μg-equiv/g and 0.36 μg-equiv/g and 1.06 μg-equiv/g
same,"Percent of Dose in Brain, Individual",[4]; 15 min,0.15% and 0.06% and 0.16%
same,"Plasma, Individual",[4]; 15 min,2.19 μg-equiv/ml and 0.89 μg-equiv/ml and 2.29 μg-equiv/ml
same,"Brain, Individual",[4]; 30 min,0.22 μg-equiv/g and 1.00 μg-equiv/g and 0.95 μg-equiv/g
same,"Percent of Dose in Brain, Individual",[4]; 30 min,0.03% and 0.15% (2×)
same,"Plasma, Individual",[4]; 30 min,0.63 μg-equiv/ml and 1.97 μg-equiv/ml and 2.00 μg-equiv/ml
same,"Brain, Individual",[4]; 60 min,0.44 μg-equiv/g and 0.53 μg-equiv/g and 1.12 μg-equiv/g
same,"Percent of Dose in Brain, Individual",[4]; 60 min,0.06% and 0.09% and 0.17%
same,"Plasma, Individual",[4]; 60 min,0.97 μg-equiv/ml and 1.01 μg-equiv/ml and 1.73 μg-equiv/ml
C=C[C@@]1(C)CC(=O)[C@]2(O)[C@@]3(C)[C@@H](O)CCC(C)(C)[C@@H]3[C@H](O)[C@H](OC(C)=O)[C@@]2(C)O1 [forskolin],intracellular concentration of cAMP after treatment,[5],~4 nmol/mg protein
